Assays:
[1] = Fluorescence spectrum (excitation/emission); format: physicochemical
Description: (§1) All the melting points were measured with a Yanagimoto-Micro apparatus and were not corrected. Nuclear magnetic resonance (^1H-NMR) spectrum of a protein was recorded by using a spectrometer, JEOL-FX-200 or JEOL-GSX-400. Chemical shifts were indicated as δ values (ppm) using tetramethylsilane as the internal standard. The fast atom bombardment mass spectrometric analysis (FAB) or the electron ionization mass spectrometric analysis (El) was performed by using a JEOL-SX-102A apparatus. […] The UV-vis spectrum was measured by using a Beckmann's 650-40 spectrometer. The fluorescence spectrum was recorded with a Hitachi's 650-40 luminescence spectrometer. The column chromatography was performed by using Merck's Silica Gel 60 (70-230 mesh). The compound numbers in Examples correspond to those in the aforementioned scheme.
A DMF solution (250 μl ) of compound (6) of the present invention obtained in Example 1 (3.7 μmol/ml) was added to a 0.1 M phosphate buffer solution (pH 7.5, 1 ml) of BSA (2 mg). The reaction mixture was allowed to stand for 30 minutes and subjected to Sephadex LH-20 column chromatography (1.5 cm×50 cm), and then eluted with a 0.1 M phosphate buffer solution (pH 7.5) to obtain a fraction of ICG-labeled protein. For IgG (2 mg), the labeling reaction with a DMF solution (250 μl) of ICG-ATT (6) (3.7 μmol/ml) was carried out in a similar manner to the above by using 0.1 M carbonate buffer (pH 9.5) instead of 0.1 M phosphate buffer (pH 7.5). The 0.1 M phosphate or the carbonate buffer solution (1 ml), containing the ICG-labeled protein (BSA or IgG) obtained by the Sephadex LH-20 column chromatography, was added to ethyl acetate (1 ml), and the mixture was vigorously stirred for 30 minutes to remove fluorescent compounds which bound to the protein through noncovalent bond. Then, the aqueous layer containing the labeled protein and the ethyl acetate layer were subjected to UV-vis and fluorescence analyses.
As a result, the ratios of the fluorescent substance in the aqueous layer and the ethyl acetate layer were 44% in BSA and 69% in IgG. The protein concentration in the labeled protein was measured by using a protein assay kit (Bio-Rad, CA), and the total ICG concentration in the labeled protein was determined from the absorbance (789 nm) of the DMF solution and the ε value of the ICD derivative. The ratios of ICG versus protein (ICG/protein) in each ICG-labeled protein were 21.5 (BSA) and 23.6 (IgG). […] From the foregoing results, it is readily understood that the compounds of the present invention are useful as near infrared fluorescent labeling agents for proteins and oligopeptides.

[2] = UV-vis absorption spectrum; format: physicochemical; details: Table 2
Description: as §1, with “The column chromatography was performed by using Merck's Silica Gel 60 (70-230 mesh). The compound numbers in Examples correspond to those in the aforementioned scheme.” left out
A DMF solution (250 μl ) of compound (6) of the present invention obtained in Example 1 (3.7 μmol/ml) was added to a 0.1 M phosphate buffer solution (pH 7.5, 1 ml) of BSA (2 mg). […] Then, the aqueous layer containing the labeled protein and the ethyl acetate layer were subjected to UV-vis and fluorescence analyses.
As a result, the ratios of the fluorescent substance in the aqueous layer and the ethyl acetate layer were 44% in BSA and 69% in IgG. The protein concentration in the labeled protein was measured by using a protein assay kit (Bio-Rad, CA), and the total ICG concentration in the labeled protein was determined from the absorbance (789 nm) of the DMF solution and the ε value of the ICD derivative. […]

- λ em ([1]; DMF): 830 nm
- λ ex ([1]; DMF): 765 nm
- fluorescent λem ([1]; Table 2): 830 nm
- fluorescent λex ([1]; Table 2): 765 nm
- UV-vis abs (λmax) [2]: 789 nm
Structure (SMILES): CCN1C(=CC=CC=CC=CC2=[N+](CCCCCC(=O)N3CCSC3=S)c3ccc4ccccc4c3C2(C)C)C(C)(C)c2c1ccc1ccccc21.[Cl-] [ICG-ATT (6), 2-[7-(1,3-Dihydro-1,1-dimethyl-3-ethylbenz[e]indolin-2-ylidene)-1,3,5-heptatrienyl]-1,1-dimethyl-3-[[6-[(1,3-thiazolidine-2-thion)-1-yl]-6-oxo]hexyl]-1H-benz[e]indolium Chloride]
